Calls of active or inactive are those of the source. The calls are words filed in the database; no cut-off is given here.
Columns and labels:
[1] = test system: Human alphaherpesvirus 1; experiment: (§1) Compound was tested in mice for the cytotoxicity against the herpes simplex virus type 1 (strain F) in plaque; Inactive; assay type: organism-based; conditions: human alphaherpesvirus 1, in vivo
[2] = target: Thymidylate synthase (Mus musculus) (UniProt P07607); experiment: Compound was evaluated for its ability to inhibit tritium release using 1 uM [5-3H]-dCyd for the cellular enzyme assay.
[3] = target: Thymidylate synthase (Mus musculus) (UniProt P07607); experiment: compound was evaluated for its ability to inhibit tritium release using 1 uM [5-3H]-dUrd for the cellular enzyme assay; Inactive
[4] = test system: HL-60; experiment: Anticancer activity was evaluated for the compound against ara-C resistant promyelocytic leukemia cell line that is Cyd-kinase deficient (HL-60-HGPRT-/dCK-); assay type: functional; conditions: Homo sapiens, read-out: ID50 (the source's name)
[5] = target: Thymidylate synthase (Mus musculus) (UniProt P07607); experiment: Inhibition of thymidylate synthase in L1210 cells; assay type: cell-based
[6] = compound was evaluated for its ability to inhibit tritium release using 1 uM [5-3H]-dUrd for the cellular enzyme assay.; assay type: functional
[7] = test system: HL-60; experiment: Anticancer activity was evaluated for the compound against parent promyelocytic leukemia cell line (HL-60-GHPRT+/dCK+); assay type: functional; conditions: Homo sapiens, read-out: ED50 (the source's name)
[8] = species: Mus musculus; experiment: as §1; assay type: functional, organism-based
[9] = test system: HL-60; experiment: Anticancer activity of the compound against ara-C resistant promyelocytic leukemia cell line that is Cyd-kinase deficient (HL-60-HGPRT-/dCK-) is determined; assay type: functional; conditions: Homo sapiens, read-out: ED50 (the source's name)

Sequence of Thymidylate synthase (Mus musculus) (P07607 whole entry, looked up): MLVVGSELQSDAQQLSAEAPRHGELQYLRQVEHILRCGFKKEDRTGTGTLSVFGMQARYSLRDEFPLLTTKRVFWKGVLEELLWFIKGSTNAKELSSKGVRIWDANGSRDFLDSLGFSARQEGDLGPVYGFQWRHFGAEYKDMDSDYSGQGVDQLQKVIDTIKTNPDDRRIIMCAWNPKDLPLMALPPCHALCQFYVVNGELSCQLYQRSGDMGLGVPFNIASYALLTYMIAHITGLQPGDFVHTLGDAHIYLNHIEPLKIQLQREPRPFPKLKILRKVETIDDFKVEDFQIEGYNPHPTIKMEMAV

O=c1[nH]c(=O)n([C@H]2C[C@H](O)[C@@H](CO)O2)cc1[Se]c1ccccc1
LD50 [1]: Not Active | ID50 [2]: 70 µM | ID50 [3]: inactive

Nc1nc(=O)n([C@@H]2O[C@H](CO)[C@@H](O)[C@@H]2O)cc1[Se]c1ccccc1
IC50 [4]: 375 µM | ED50 [5]: 25 µM | ID50 [6]: 60 µM

O=c1[nH]c(=O)n([C@@H]2O[C@H](CO)[C@@H](O)[C@@H]2O)cc1[Se]c1ccccc1
EC50 [7]: 88 µM | LD50 [8]: inactive

Nc1ccn([C@@H]2O[C@H](CO)[C@@H](O)[C@@H]2O)c(=O)n1 [CYTARABINE]
EC50 [7]: 0.047 µM | EC50 [9]: 30 µM | ED50 [5]: 0.03 µM

Reference: ChEMBL document CHEMBL1123319, “Synthesis and biological activity of 5-phenylselenenyl-substituted pyrimidine nucleosides” (J Med Chem, 1986)
